In article PMC8268887, “Peptide/β-Peptoid Hybrids with Ultrashort PEG-Like Moieties: Effects on Hydrophobicity, Antibacterial Activity and Hemolytic Properties” (International Journal of Molecular Sciences, 2021):
≈ marks a conversion by molar mass, not a printed value. Read-outs that look alike come from different tables or passages of the source.

What was measured:
[1] = Hydrophobicity by retention in analytical RP-HPLC (% MeCN at peak elution); assay type: physicochemical; settings: for % MeCN at Elution, Aeris Peptide: Phenomenex Aeris Peptide XB-C18 column; for % MeCN at Elution, Aeris Peptide / % MeCN at Elution, Luna Omega / % MeCN at Elution, Supelco Discovery: gradient 0→60% B during 15 min; for % MeCN at Elution, Luna: Phenomenex Luna C18(2) column, RP-HPLC gradient 0→60% B during 15 min, relative hydrophobicity; for % MeCN at Elution, Luna Omega: Phenomenex Luna Omega Polar C18 column; for % MeCN at Elution, Supelco Discovery: Supelco Discovery BIO Wide pore C18 column
Protocol: For each peptide/β-peptoid hybrid oligomer, the retention time in RP-HPLC was measured on four different columns (details shown in Table 2): Phenomenex Luna C18(2) column (recommended for hydrophobic compounds [49]), Phenomenex Luna Omega Polar C18 column (recommended for both very polar and non-polar compounds [50]) as well as Phenomenex Aeris Peptide XB-C18 [51] and Sigma-Aldrich Supelco Discovery BIO Wide pore C18 [52] columns, which both are recommended for analysis of peptides. The retention times of the compounds on each column were used to calculate the acetonitrile concentration at peak elution (denoted merely as % MeCN; Table 1). As expected, the % MeCN for each compound varied somewhat between the four columns.
Starting materials and solvents were acquired from commercial suppliers (Iris Biotech, Markredwitz, Germany; Fluorochem, Hadfield, UK; and Merck, Darmstadt, Germany) and used without further purification. Water used for analytical and preparative high-performance liquid chromatography (HPLC) was filtered through a 0.22-μm capsule filter using an Evoqua LaboStar Pro TWF UV system. Purity and retention time of each peptidomimetic were determined by analytical HPLC by using a Phenomenex Luna Omega Polar C18 column (150 × 4.6 mm; particle size: 3 μm; pore size: 100 Å) on a Shimadzu Prominence and Shimadzu Nexera system using an aqueous acetonitrile (MeCN, VWR, Søborg, Denmark) gradient with 0.1% trifluoroacetic acid (TFA, Iris Biotech, Markredwitz, Germany) added (eluent A: 5:95 MeCN–H2O + 0.1% TFA, eluent B: 95:5 MeCN–H2O + 0.1% TFA); a flow rate of 0.8 mL/min was used. For elution of peptidomimetics, a linear gradient of 0% to 60% B during 15 min was used with UV detection at λ = 220 nm. […] Retention time of each peptidomimetic was also determined by using a Phenomenex Luna C18(2) column (150 × 4.6 mm; particle size: 3 μm; pore size: 100 Å), a Phenomenex Aeris Peptide XB-C18 column (150 × 4.6 mm; particle size: 3.6 μm; pore size: 100 Å), and a Sigma-Aldrich Supelco Discovery BIO Wide pore C18 column (150 × 4.6 mm, particle size: 3 µm; pore size: 300 Å). For each peptidomimetic, the percentage of MeCN at peak elution was calculated from the retention time by using the following formula:(1) %MeCN =0.95 (0.6Rt/15 min)+0.05 (1−0.6Rt/15 min)

E. coli ATCC 25922 = assay type: cell-based, Escherichia coli; settings: ATCC 25922, 20 h
Protocol: (§1) MIC values of the peptidomimetics were evaluated by using the modified Hancock lab protocol in non-binding polystyrene microtiter plates. Bacterial suspensions of ~5 × 10^5 CFU/mL in Mueller-Hinton broth (Difco, Sparks, MD, USA) were prepared with Mg^2+ and Ca^2+ concentrations of 4 mg/L each. The compounds were dissolved in H2O and diluted in 0.01% acetic acid, 0.2% BSA (final concentration). Aliquots (11 µL) of test compounds were then transferred to wells containing bacterial suspensions (100 µL). Low-binding sterile tubes and tips (Axygen, Union City, CA, USA) were used for preparation and transfer of the solutions of the compounds. Following incubation for 20 h of the covered plates at 35 °C (±2 °C) with circular shaking at 180 rpm, the MICs were read.

E. coli NMI 3371/16 = assay type: cell-based, Escherichia coli; settings: NMI 3371/16, 20 h
Protocol: as §1

E. coli NMI 3898/15 = assay type: cell-based, Escherichia coli; settings: NMI 3898/15, 20 h
Protocol: as §1

E. faecalis ATCC 29212 = assay type: cell-based; settings: ATCC 29212, 20 h
Protocol: as §1

K. pneumoniae ATCC 13883 = assay type: cell-based
Protocol: as §1

[2] = test system: P. aeruginosa NMI 7197/19; assay type: cell-based, Pseudomonas aeruginosa; settings: NMI 7197/19, 20 h
Protocol: as §1

P. aeruginosa PAO1 = assay type: cell-based, Pseudomonas aeruginosa; settings: PAO1, 20 h
Protocol: as §1

A. baumannii ATCC 19606 = assay type: cell-based, Acinetobacter baumannii; settings: ATCC 19606, 20 h
Protocol: as §1

A. baumannii NMI 3658/17 = assay type: cell-based, Acinetobacter baumannii; settings: NMI 3658/17, 20 h
Protocol: as §1

S. aureus ATCC 29213 = assay type: cell-based, Staphylococcus aureus; settings: ATCC 29213, 20 h
Protocol: as §1

[3] = Determination of hemolytic activity; assay type: cell-based; settings: red blood cell suspension in PBS buffer, human red blood cells at 400 µg/mL, 37 °C
Protocol: The lysis of human red blood cells was measured almost as previously described, albeit with modifications. In brief, a suspension of freshly drawn human red blood cells (hRBCs) was washed three times with PBS buffer and centrifuged two times for 5 min at 2500 rpm. A two-fold serial dilution of compounds in PBS buffer was prepared. Plates (conical-bottomed 96-well plates) with three replicate wells per dilution, each containing 1% red blood cell suspension, were prepared and dosed with the test compound to achieve a final concentration of 400 μg/mL in a total volume of 100 μL. The plates were incubated (37 °C) for 60 min with mild agitation, and then the cells were pelleted by centrifugation at 1500 rpm for 5 min. The supernatants (50 μL) were then transferred to a fresh 96-well plate, and the concentration of hemoglobin was detected by measuring the OD at 405 nm. The OD of cells incubated with 1% SDS defined 100% hemolysis, while the OD of cells incubated with PBS buffer defined 0% hemolysis. The concentration tested was 400 μg/mL (only average values are stated in Table 5). The percent hemolysis was calculated by using the formula:(3) Hemolysis (%)=100×[Asample−Aneg.control/Apos.control−Aneg.control]

[4] = Antiproliferative activity on HepG2 cell line (MTT assay); assay type: cell-based; settings: HepG2 cells; at 1280 µg/mL, value in parenthesis; read-out: HepG2 cell viability at highest concentration tested
Protocol: (§2) Effect of compounds on mammalian cell viability was estimated on the HepG2 cell line ATCC HB-8065. In brief, HepG2 cells were seeded into flat-bottomed 96-well plates at a concentration of 5000 cells per well. Subsequently, the cells were incubated for 24 h in a humidified incubator (5% CO2, 37 °C). Then, the medium was removed, and the cells were incubated for 48 h in a humidified incubator (5% CO2, 37 °C) with peptidomimetics in serial dilutions. Then, an 3-(4,5-dimethylthiazol-2-yl)-2,5-diphenyltetrazolium bromide (MTT) assay was performed as previously described. In brief, after incubation with the test compounds, the culture medium was removed, and then fresh medium with 0.2 mg/mL MTT was added into each well of the plate. The cells were then incubated (3 h, 37 °C, 5% CO2), followed by removal of the medium with MTT and addition of 200 μL dimethyl sulfoxide at once to each sample. Absorbance of MTT was measured using the spectrophotometer TECAN Infinite M1000 at 540 nm. The relative viability was calculated by using the formula: ODtreated cells × 100/ODcontrol cells. The IC50 values are calculated by using the program Graph Pad Prism® 5.0. For all compounds, the test range was 10–1280 μg/mL.

[5] = test system: HepG2 cell line ATCC HB-8065; experiment: as above; assay type: cell-based; settings: inhibition of growth of HepG2 cells, 48 h, MTT; highest concentration tested 1280 µg/mL
Protocol: as §2

[6] = rat, in vivo; cited from earlier work

Molecule | % MeCN at Elution, Aeris Peptide [1] [% MeCN] | % MeCN at Elution, Luna [1] [% MeCN] | % MeCN at Elution, Luna Omega [1] [% MeCN] | % MeCN at Elution, Supelco Discovery [1] [% MeCN] | MIC against E. coli (E. coli ATCC 25922) [µM] | MIC, EC (E. coli ATCC 25922) [µg/mL] | MIC, E. coli NMI 3371/16 (E. coli NMI 3371/16) [µg/mL] | MIC, E. coli NMI 3898/15 (E. coli NMI 3898/15) [µg/mL] | MIC, EF (E. faecalis ATCC 29212) [µg/mL] | MIC, KP (K. pneumoniae ATCC 13883; ATCC 13883, 20 h) [µg/mL] | MIC, P. aeruginosa NMI 7197/19 [2] [µg/mL] | MIC, PA (P. aeruginosa PAO1) [µg/mL] | MIC, AB (A. baumannii ATCC 19606) [µg/mL] | MIC, A. baumannii NMI 3658/17 (A. baumannii NMI 3658/17) [µg/mL] | MIC, SA (S. aureus ATCC 29213) [µg/mL] | hemolysis at 60 min [3] [%] | viability at 48 h [4] [%] | HepG2 IC50 [5] [µg/mL] | elimination half-life [6] [min] | MIC, KP (K. pneumoniae ATCC 13883)
NCCCC[C@H](NC(=O)CCN(Cc1ccc(F)cc1)C(=O)[C@H](CCCCN)NC(=O)CCOCCOCCOCCOCCNC(=O)CCN(Cc1ccc(F)cc1)C(=O)[C@H](CCCCN)NC(=O)CCN(Cc1ccc(F)cc1)C(=O)[C@H](CCCCN)NC(=O)CCOCCOCCOCCOCCNC(=O)CCN(Cc1ccc(F)cc1)C(=O)[C@H](CCCCN)NC(=O)CCN(Cc1ccc(F)cc1)C(=O)[C@@H](N)CCCCN)C(=O)N(CCC(N)=O)Cc1ccc(F)cc1 [Compound 18, H-[X]2-sPEG4-[X]2-sPEG4-[X]2-NH2] | 40.1 | 42.1 | 42.7 | 42.3 | 1.2 to 2.4 | 4 to 8 | 8 to 16 | 16 (≈ 6.79 µM) | >64 | 64 (≈ 27.2 µM) | >64 | >64 | 8 to 16 | 16 (≈ 6.79 µM) | >64 | 8.3 | 41 | ~1280 |  | 
VDKPPYLPRPRPIRrPGGr-NH2 [OM19r-8] |  |  |  |  |  |  |  |  |  |  |  |  |  |  |  |  |  |  | 1.6 | 
NCCCC[C@H](NC(=O)CCN(Cc1ccc(F)cc1)C(=O)[C@H](CCCCN)NC(=O)CCN(Cc1ccc(F)cc1)C(=O)[C@H](CCCCN)NC(=O)COCCOCCOCCNC(=O)CCN(Cc1ccc(F)cc1)C(=O)[C@H](CCCCN)NC(=O)CCN(Cc1ccc(F)cc1)C(=O)[C@H](CCCCN)NC(=O)CCN(Cc1ccc(F)cc1)C(=O)[C@@H](N)CCCCN)C(=O)N(CCC(N)=O)Cc1ccc(F)cc1 [Compound 8, H-[X]3-sPEG3-[X]3-NH2] | 39.6 | 41.7 | 42.1 | 41.9 |  | 4 (≈ 1.95 µM) | 4 (≈ 1.95 µM) | 8 (≈ 3.9 µM) | >64 | >64 | >64 | 32 (≈ 15.6 µM) | 4 to 8 | 4 (≈ 1.95 µM) |  | 8.9 | 10 | 601 |  | 
NCCCC[C@H](NC(=O)CCN(Cc1ccc(F)cc1)C(=O)[C@H](CCCCN)NC(=O)COCCOCCOCCNC(=O)CCN(Cc1ccc(F)cc1)C(=O)[C@H](CCCCN)NC(=O)CCN(Cc1ccc(F)cc1)C(=O)[C@H](CCCCN)NC(=O)COCCOCCOCCNC(=O)CCN(Cc1ccc(F)cc1)C(=O)[C@H](CCCCN)NC(=O)CCN(Cc1ccc(F)cc1)C(=O)[C@@H](N)CCCCN)C(=O)N(CCC(N)=O)Cc1ccc(F)cc1 [Compound 17, H-[X]2-sPEG3-[X]2-sPEG3-[X]2-NH2] | 39.8 | 41.8 | 42.4 | 42.0 |  | 8 (≈ 3.57 µM) | 8 to 16 | 32 (≈ 14.3 µM) | >64 | >64 | >64 | >64 | 16 to 32 | 16 (≈ 7.14 µM) | >64 | 9.4 | 35 | ~1280 |  | 
NCCCC[C@H](NC(=O)CCN(Cc1ccc(F)cc1)C(=O)[C@H](CCCCN)NC(=O)CCN(Cc1ccc(F)cc1)C(=O)[C@H](CCCCN)NC(=O)COCCNC(=O)CCN(Cc1ccc(F)cc1)C(=O)[C@H](CCCCN)NC(=O)CCN(Cc1ccc(F)cc1)C(=O)[C@H](CCCCN)NC(=O)CCN(Cc1ccc(F)cc1)C(=O)[C@@H](N)CCCCN)C(=O)N(CCC(N)=O)Cc1ccc(F)cc1 [Compound 6, H-[X]3-sPEG1-[X]3-NH2] | 39.2 | 41.2 | 41.6 | 41.4 |  | 4 (≈ 2.04 µM) | 4 (≈ 2.04 µM) | 8 (≈ 4.08 µM) |  |  | >64 | 32 (≈ 16.3 µM) | 4 to 8 | 4 (≈ 2.04 µM) | 32 to 64 | 7.7 | 6 | 761 |  | 64–>64
